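These data come from cells grown in 96-well plates and exposed to compound for 48 hours at five concentrations. TGI is the concentration that stops growth completely.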
Tests used:
Experiment in all cases: DTP human tumour cell line panel, 48 h
[1] = test system: SK-OV-3 ovarian
[2] = test system: PC-3 prostate
[3] = test system: HCC-2998 colon
[4] = test system: CCRF-CEM leukemia
[5] = test system: HOP-62 NSCLC
[6] = test system: HCT-116 colon
[7] = test system: DU-145 prostate
[8] = test system: MCF7 breast
[9] = test system: NCI-H226 lung
[10] = test system: HS 578T breast
[11] = test system: NCI/ADR-RES ovarian
[12] = test system: M14 melanoma
[13] = test system: MDA-MB-231 breast
[14] = test system: 786-0 renal
[15] = test system: T-47D breast

| SMILES | TGI [1] [µM] | TGI [2] [µM] | TGI [3] [µM] | TGI [4] [µM] | TGI [5] [µM] | TGI [6] [µM] | TGI [7] [µM] | TGI [8] [µM] | TGI [9] [µM] | TGI [10] [µM] | TGI [11] [µM] | TGI [12] [µM] | TGI [13] [µM] | TGI [14] [µM] | TGI [15] [µM] |
| --- | --- | --- | --- | --- | --- | --- | --- | --- | --- | --- | --- | --- | --- | --- | --- |
| Cc1ccc(S(=O)(=O)NC2C(=O)c3ccccc3C(=O)C2n2cnc3ccccc32)cc1 (stereo not given) | > 100 | 64.3 | 34.7 | > 100 | > 100 | > 100 | > 100 | > 100 | > 100 | > 100 | 73.6 | > 100 | > 100 | > 100 | > 100 |
| O=C(O)c1ccc2c(c1)CC1(C2)Cc2ccccc2C1=O (stereo not given) | > 100 | > 100 | > 100 | > 100 | > 100 | > 100 | > 100 | > 100 | > 100 | > 100 | > 100 | > 100 | > 100 | > 100 | > 100 |
| CC(=O)OC1COC(n2c(-c3ccc(Cl)cc3)cc(-c3ccccc3)c(C#N)c2=S)C(OC(C)=O)C1OC(C)=O (stereo not given) | > 78.7 | 46.3 | > 90.3 | > 86.1 | 28.4 | > 51.7 | 41.6 | > 100 | 32.3 | 24.6 | 33.8 | > 31.6 | 9.38 | 26.8 | 54 |
| NC(N)=N/N=C/c1c(-c2ccc([N+](=O)[O-])cc2)nc2n1CCS2 | 43.2 | 27.7 | 19.7 | 11.8 | 61.5 | 23 | 28.1 | 30.3 | 42.9 | 39.1 | > 100 | 30.2 | 16 | 20.9 | 16.3 |
| COc1ccc(C2=C(N)c3c(OC)cccc3C2=O)cc1 | > 100 | > 100 | > 100 | > 100 | > 100 | > 100 | > 100 | > 100 | > 100 | > 100 | > 100 | > 100 | > 100 | > 100 | > 100 |
| c1ccc(Nc2nnc(Cn3ccc4ccccc43)s2)cc1 | > 100 | > 100 | > 100 | > 100 | > 100 | > 100 | > 100 | > 100 | > 100 | > 100 | > 100 | > 100 | > 100 | > 100 | > 100 |
| COc1c2ccccc2c(OC)c2nc(C)ccc12 | > 100 | > 100 | > 100 | 71.6 | > 100 | > 100 | > 100 | > 100 | > 100 | > 100 | > 100 | > 100 | > 100 | > 100 | > 100 |
| [O-][n+]1onc(-c2ccccc2)c1CN1CCOCC1 | > 100 | > 100 | > 100 | > 100 | > 100 | > 100 | > 100 | > 100 | > 100 | > 100 | > 100 | > 100 | > 100 | > 100 | > 100 |
